Results: US9220676B2, “Injectable in-situ crosslinked hydrogel and methods of making and using thereof” (Bioregen Biomedical (Changzhou) Co., Ltd., priority 2008, dated 2015)

Assay: Release of corticosteroid from drug-containing in-situ crosslinked sodium hyaluronate hydrogel into phosphate buffer solution
Type: physicochemical
Conditions: for cumulative releasing percentage of the drug: 0.2 mL gel in 10 mL phosphate buffer solution, 37° C., 100 rpm, UV absorption of supernatant; for release of the drug from the gel (in words): summary of the release table
Method: Into the 10 mL thiolated sodium hyaluronate solution prepared in Example 1 (pH 7.0, 1.0% w/v), 0.1-10 mg one type of corticosteroid (e.g. Beclomethasone, Beclomethasone dipropionate, Budesonide; Dexamethasone, Prednisolone or Prednisone) was added. The solution was mix uniformly and immediately filled into a 1 mL syringe which was then sealed and kept at room temperature. It was observed after one week that the solution sealed in the syringe had lost fluidity to form a gel.
0.2 mL gel containing drug as described above was filled into a 15 mL plastic centrifugal tube; 10 mL phosphate buffer solution was added into the centrifugal tube which was then put in an incubator (37° C., 100 rpm); ultraviolet absorption of the drug in the supernatant was recorded at a certain time interval.
The cumulative releasing percentages of the drug at different times are as below: […]

Row | SMILES | cumulative releasing percentage of the drug (day 7) [%] | cumulative releasing percentage of the drug (day 14) [%] | cumulative releasing percentage of the drug (day 21) [%] | release of the drug from the gel (in words)
1 | C[C@H]1C[C@H]2[C@@H]3CCC4=CC(=O)C=C[C@]4(C)[C@@]3(Cl)[C@@H](O)C[C@]2(C)[C@@]1(O)C(=O)CO [Beclomethasone] | 61 | 82 | 91 | –
2 | C[C@]12C=CC(=O)C=C1CC[C@@H]1[C@@H]2C(=O)C[C@@]2(C)[C@H]1CC[C@]2(O)C(=O)CO [Prednisone] | 82 | 95 | 100 | –
3 | CCC(=O)OCC(=O)[C@@]1(OC(=O)CC)[C@@H](C)C[C@H]2[C@@H]3CCC4=CC(=O)C=C[C@]4(C)[C@@]3(Cl)[C@@H](O)C[C@@]21C [Beclomethasone dipropionate] | <1 | <1 | <1 | release was rarely detected
4 | C[C@]12C=CC(=O)C=C1CC[C@@H]1[C@@H]2[C@@H](O)C[C@@]2(C)[C@H]1CC[C@]2(O)C(=O)CO [Prednisolone] | 95 | 100 | 100 | released substantially completely in 7 days
